Measurements taken from article PMC7822874, “Chemoprotective antimalarials identified through quantitative high-throughput screening of Plasmodium blood and liver stage parasites” (Scientific Reports, 2021).

Tests used:
[1] = system: Plasmodium falciparum Dd2 asexual blood stage parasites; assay: microbe, parasite or virus in culture; parameters: species or system Plasmodium falciparum Dd2 in human erythrocytes; single determination (one 11-point concentration-response curve); conditions: Plasmodium falciparum, DD2, Erythrocyte, 72 h; read-out: AC50
in vitro = conditions: human
[2] = HepG2-A16-CD81EGFP cells, uninfected

SMILES	AC50 [1] [nM]	viability at 48 h, 1 µM (in vitro; [2]) [%]	viability at 48 h, 3 µM (in vitro; [2]) [%]	viability at 66 h (in vitro; [2]) [%]	viability at 48 h (in vitro; [2]) [%]	viability at 66 h (in vitro) [%]	viability (in vitro) [%]
CCCn1cc(SCC(=O)NCc2ccco2)c2ccccc21 [MLS000095681-01]	8410	90	87	–	–	–	–
Cc1ccc(-n2c(C)cc(C(=O)OCC(=O)N(C)C3CCS(=O)(=O)C3)c2C)cc1 (stereo not shown) [MLS000098265-01]	4730	–	–	101	–	–	–
O=C1C2=C(Nc3ccccc3SC2c2ccco2)c2ccccc21 (stereo not shown) [MLS000108310-01]	4730	110	99	–	–	–	–
Cc1c(C#N)c2ccccc2n1CCOc1ccccc1F [MLS000113080-01]	1680	100	97	–	–	–	–
CC(C)Cc1cc(C(=O)Nc2cc(Br)ccc2O)no1 [MLS000116399-01]	4730	120	110	–	–	–	–
Cc1cc(C)cc(Nc2cc(C)nc3nc(C)nn23)c1 [MLS000116612-01]	5310	112	–	–	112	–	–
Cc1cc(N2CCN(C3CCCCC3)CC2)nc2cccc(O)c12 [MLS000118317-01]	5310	104	105	–	–	–	–
COc1ccc(CNCC(O)(c2ccc(Cl)cc2)c2ccc(Cl)cc2)cc1 [MLS000325709-01]	1500	98	96	–	–	–	–
O=C(Nc1c(C(=O)c2ccccc2)oc2ccccc12)c1cc(-c2ccccc2O)n[nH]1 [MLS000331861-01]	2110	100	99	–	–	–	–
COc1cccc(OC)c1C(=O)NC(S)=Nc1ccc2c(c1)C(=O)N(C)C2=O [MLS000331897-01]	944	–	–	103	–	–	–
CCn1c(SCC(=O)NCCc2ccccc2)nc2sc3c(c2c1=O)CCN(C)C3 [MLS000332196-01]	5310	96	87	–	–	–	–
COc1ccc(NC(C)C(=O)Nc2cc(C(F)(F)F)ccc2N2CCOCC2)c(OC)c1 (stereo not shown) [MLS000334848-01]	841	100	91	–	–	–	–
Cc1ccccc1NC(=O)c1cc(C(=O)c2cc(Cl)ccc2O)cn(-c2ccccc2C)c1=O [MLS000374594-01]	376	98	93	–	–	–	–
Cc1cccc(NC2=C(NC(=O)c3ccccc3)C(=O)c3ccccc3C2=O)c1 [MLS000392330-01]	944	98	95	–	–	–	–
CC(C)Oc1ccc2c(c1)OC(c1ccccc1)(C(F)(F)F)NC2=O (stereo not shown) [MLS000392812-01]	2660	105	98	–	–	–	–
O=S(=O)(c1ccc2ccccc2c1)N1CCN(C(S)=Nc2ccc(F)c(Cl)c2)CC1 [MLS000394708-01]	1060	111	98	–	–	–	–
COc1ccc(CCNC(=O)c2cc(C(=O)c3cc(Cl)ccc3O)cn(CCc3ccc(OC)cc3)c2=O)cc1 [MLS000402334-01]	3760	–	–	105	–	–	–
COc1cc2c3nnc(-c4ccc(F)cc4)c-3cn(Cc3ccccc3F)c2cc1OC [MLS000419426-01]	3760	113	100	–	–	–	–
COc1ccc(C2C(C(=O)N3CCCCC3)CC(=O)N2c2ccc(OC)cc2)cc1 (stereo not shown) [MLS000519691-01]	7500	85	91	–	–	–	–
Cc1nccn1CC(O)Cn1c2ccccc2c2ccccc21 (stereo not shown) [MLS000527796-01]	8410	103	–	–	103	–	–
OC(CN1CCN(c2ccccn2)CC1)Cn1c2ccc(Cl)cc2c2cc(Cl)ccc21 (stereo not shown) [MLS000529159-01]	2990	–	–	102	–	–	–

SMILES	AC50 [1] [nM]	viability at 48 h, 1 µM (in vitro; [2]) [%]	viability at 48 h, 3 µM (in vitro; [2]) [%]	viability at 66 h (in vitro; [2]) [%]	viability at 48 h (in vitro; [2]) [%]	viability at 66 h (in vitro) [%]	viability (in vitro) [%]
Oc1ccc(Cl)cc1-c1cc(C(F)(F)C(F)F)nc(-c2ccccc2)n1 [MLS000530553-01]	841	93	87	–	–	–	–
CCOC(=O)c1c(-c2ccccc2)oc2ccc(O)c(CN3CCCC3)c12 [MLS000530619-01]	596	98.8	–	–	98.8	–	–
CCc1cc2c(=O)c(-c3cnn(-c4ccccc4)c3)c(C)oc2c(CN2CCCCC2)c1O [MLS000530719-01]	1330	105	105	–	–	–	–
O=c1c(=Cc2ccco2)sc2n1CN(c1cccc(Br)c1)CN=2 [MLS000535198-01]	9440	103	103	–	–	–	–
CCOC(=O)c1c(C)[nH]c(C(=O)CSc2nnc(C3CC3)n2N)c1C [MLS000536141-01]	1500	92	89	–	–	–	–
CCc1cc2c(Sc3nc4ccccc4s3)ncnc2s1 [MLS000544746-01]	1500	104	101	–	–	–	–
CN1C2CCC1/C(=C\c1ccccc1)C(=O)/C2=C\c1ccccc1 [MLS000551165-01]	2110	–	–	–	–	95.8	–
Oc1ccc(Br)cc1-c1cc(-c2ccc(Cl)cc2)[nH]n1 [MLS000551526-01]	2660	88	87	–	–	–	–
Cc1c(O)c(CN2CCCCC2)cc2c1oc(=O)c1ccccc12 [MLS000551544-01]	750	–	–	95.3	–	–	–
O=C(CCl)N(c1ccccc1)c1c[nH]c2ccccc12 [MLS000554103-01]	2110	100	100	–	–	–	–
CCC(O)(CC)C(=O)NN(C(=O)Nc1csc2c1CCCC2)c1ccccc1 [MLS000554206-01]	2990	98	95	–	–	–	–
NNC(=O)CN1C(c2cccc(Cl)c2)=Nc2ccc(Br)cc2C1c1ccccc1 (stereo not shown) [MLS000558682-01]	2660	90	89	–	–	–	–
CCN(CC)CCN1C(=O)c2ccccc2NC1c1ccc(C)cc1 (stereo not shown) [MLS000558946-01]	2990	98	104	–	–	–	–
O=C1c2ccccc2C2=Nc3ccccc3SC(c3ccccc3F)C12 (stereo not shown) [MLS000562246-01]	4730	99	95	–	–	–	–
COc1ccc(NC2=C(c3ccc(OC)cc3)C(=O)c3ccccc32)cc1 [MLS000562793-01]	5960	91	90	–	–	–	–
COc1cc2c(cc1O)CC[n+]1cc3c(OC)c(OC)ccc3cc1-2 [MLS000563433-01]	7500	–	–	97.8	–	–	–
COc1ccc(C2=C(Nc3ccc(C)cc3)c3ccccc3C2=O)cc1 [MLS000563980-01]	4730	96	90	–	–	–	–
N#Cc1cc(C(=O)c2cc(Br)ccc2O)cn(C2CCCCC2)c1=O [MLS000565115-01]	668	90	84	–	–	–	–
Cc1cc(NC(=O)CN2CCN(c3ccc(O)cc3)CC2)no1 [MLS000565196-01]	4730	104	107	–	–	–	–
CCN(CC)C1=NC(=[N+](CC)CC)c2ccccc21.[O-][Cl+3]([O-])([O-])O [MLS000565348-01]	5310	–	–	–	–	–	81.5
